For one experiment, the system named is PA (FluA). It counts as binding, influenza A virus.
A further experiment relates to PA (FluB). The format is binding, influenza B virus.

As a reminder, the IC50 is the concentration that inhibits the measured activity by half. A low value points to inhibition by little substance. Turning to “MDVNPCLLFLKVPAQ [PB11-15AT6C, -----C---------]”, the results for the half-inhibitory concentration (IC50) in the experiment on PA (FluA) and in the experiment on PA (FluB) were 43.6 nM and greater than 3000 nM, respectively.
For MDVNPFLLFLKVPAQ [PB11-15AT6F], the IC50 in the experiment on PA (FluA) was 2.84 nM; in the experiment on PA (FluB) it was 750 nM.
On to “MDVNPHLLFLKVPAQ [PB11-15AT6H, -----H---------]”, for which the IC50 in the experiment with PA (FluB) was greater than 3000 nM.
The sequence “MDVNPTFLFLKVPAQ [PB11-15AL7F, ------F--------]” came in with an IC50 in the experiment on PA (FluB) greater than 3000 nM.
For the sequence “MDVNPTLLFIDVPAQ [PB11-15AL10I,K11D, ---------ID----]”, the IC50 in the experiment with PA (FluB) is greater than 3000 nM.
Regarding “MDVNPTLLFLKVPAQ [PB11-15A, reference compound]”, in the experiment with PA (FluB), the IC50 was greater than 3000 nM and the “competition for binding to FluB PA” value is listed as “not FluB PA binding”.
With MDVNPWLLFLKVPAQ [PB11-15AT6W], the half-maximal inhibitory concentration (IC50) with PA (FluA) was 3.4 nM; in the experiment with PA (FluB) it was 628 nM.
Regarding MDVNPYFLFLKVPAQ [PB11-15AT6Y,L7F], in the experiment with PA (FluA), the 50% inhibitory concentration (IC50) was determined as 7.51 nM and the “competition for binding to FluA PA” value is “competed for binding to FluA PA”. Further, in the experiment with PA (FluB), the midpoint of inhibition, the IC50, lay at 345 nM and the “competition for binding to FluB PA” value is “also to FluB PA, albeit with less affinity than PB11-15B”.
As for MDVNPYLLFLKVPAQ [PB11-15AT6Y], in the experiment with PA (FluA), half-maximal inhibition (IC50) required 21.6 nM and the “competition for binding to FluA PA” value was “decreased binding of FluA PA compared to the double mutant, yet binding was still better than with wild type peptide”. In addition, in the experiment on PA (FluB), the IC50 was 107 nM and the “competition for binding to FluB PA” value is reported as “binding to FluB PA increased”.
As to “MNINPTLLFLKVPAQ [PB11-15AD2N,V3I, -NI------------]”, the 50% inhibitory concentration (IC50) in the experiment on PA (FluB) was greater than 3000 nM.
Same read-out and setting: in the case of “MNINPTLLFLKVPIQ [PB11-15AD2N,V3I,L14I, -NI----------I-]” it was greater than 3000 nM.
Turning to “MNINPYFLFIDVPIQ [PB11-15B, -NI--YF--ID--I-, reference compound]”, in the experiment with PA (FluA), the 50% inhibitory concentration (IC50) was greater than 3000 nM and the “competition for binding to FluA PA” value is on record as “not FluA PA binding”. Further, in the experiment with PA (FluB), the IC50 stood at 45 nM and the “competition for binding to FluB PA” value is reported as “blocked FluB PA”.

(Values after patent US20120129764A1 (priority 2009, published 2012).)
